{
  "source": "patent US20230241057A1",
  "about": "“COMPOUNDS FOR THE PREVENTION, TREATMENT AND DIAGNOSIS OF THROMBI” (INSERM (INSTITUT NATIONAL DE LA SANTÉ ET DE LA RECHERCHE …, priority 2020, published 2023)",
  "key": {"[1]": {"tested_on": "extracellular chromatin (NETs)", "experiment": "Extracellular chromatin (NETs) binding to coated nitinol disks, Sytox Green staining", "set-up": "species or system human", "conditions": "for Chomatin binding (% of max): coated nitinol disks applied 3 minutes on nigericin-stimulated human neutrophils, mean±SEM, 6/coating; for Chromatin/Platelet binding ratio: ratio of chromatin binding to platelet binding (% of max)", "from_the_text": "(§1) Nitinol disks are left untouched (bare metal) or coated with the tested chromatin ligands following a polydopamine, DBCO-PEG4-amine and azide derivative ligand sequential dip-coating layering procedure.\nExtracellular chromatin adhering to the disk surface was stained with the cell impermeant nuclear dye Sytox Green.\n(§2) Each dot corresponds to the mean binding (% of max, mean±SEM) of chromatin (X-axis) and platelet (Y-axix) with the standard error bars parallel to the respective axis.\n(§3) Different linkers were combined with piperaquine and the resulting azide derivatives were used for coating nitinol disks (N=6 for each compound), following the described 3-step dip-coating procedure. Platelet adhesion (left panel) was evaluated by analyzing the surface and intensity of the phalloidin staining (green fluorescence) after immersion of the disks (N^o=6/coating) for 10 min in blood withdrawn in PPAK (thrombin inhibitor providing a transient anticoagulation). The binding of extracellular chromatin was evaluated by applying for 3 minutes the disks on the bottom of wells in which fresh human neutrophils were stimulated with nigericin for 4 hours, to promote the formation of neutrophil extracellular traps (NETs). Extracellular chromatin was stained with the cell impermeant nuclear dye Sytox Green."}, "blood platelets": {"tested_on": "blood platelets", "experiment": "Platelet adhesion to coated nitinol disks, phalloidin-AlexaFluor 488 staining", "format": "cell-based", "conditions": "for Platelet binding (% of max): coated nitinol disks immersed 10 min in blood withdrawn in PPAK, mean±SEM, 6/coating", "from_the_text": "as §1, §2, §3"}, "[2]": {"tested_on": "thrombus material (DNA and proteins)", "conditions": "coated nitinol disks vs bare metal; thrombus slice 5 minutes at 37° C. in human plasma; Hoechst 33342 / Evans Blue staining", "method": "Polydopamine (1 mg/ml in tris buffer, pH 8.5, 22±2 hours)\nA fresh thrombus was prepared with human whole blood additioned with PMA 100 nM and ionomycin 1 μM to promote strong leukocyte activation leading to the release of extracellular chromatin within the thrombus. Slice of the same thrombus were layered onto coated and bare metal disks in the wells of a 48-well plate, covered with human plasma and incubated at 37° C. on an orbital shaker for 5 minutes. The thrombus slices were mechanically removed using tweezers, the disk washed in PBS and stained with a solution made of Hoechst 33342 (1 μg/ml, to stain DNA) and Evans Blue (3%, to stain proteins) in PBS for 5 minutes. […] The image analysis was performed using the Image J open software."}, "[3]": {"conditions": "coated disk compared to bare metal"}},
  "data": [
    {"compound": "[N-]=[N+]=NCCOCCOCCNC(=O)CCc1ccc(N(CCCl)CCCl)cc1", "note": "[PPM, N-(2-(2-(2-azidoethoxy)ethoxy)ethyl)-3-(4-(bis(2-chloroethyl)amino)phenyl)propanamide]", "values": [
      {"measurement": "Chomatin binding (% of max)", "setting": "[1]", "result": "36.75 ± 5.78 % of max"},
      {"measurement": "Chromatin/Platelet binding ratio", "setting": "[1]", "result": 0.75},
      {"measurement": "Platelet binding (% of max)", "setting": "blood platelets", "result": "48.8 ± 5.59 % of max"}
    ]},
    {"compound": "CSc1ccc2c(c1)N(CCC1CCCCN1C)c1ccccc1S2", "note": "(centres unmarked) [thioridazine]", "values": [
      {"measurement": "DNA and proteins captured from the thrombus (Integrated Density)", "setting": "[2]", "result": "capture more DNA and proteins"}
    ]},
    {"compound": "Cn1cc(NC(=O)c2cc(NC(=O)c3cc(NC=O)cn3C)cn2C)cc1C(=O)NCCC(=N)N", "note": "[Distamycin, reference compound]", "values": [
      {"measurement": "Chomatin binding (% of max)", "setting": "[1]", "result": "12.26 ± 4.14 % of max"},
      {"measurement": "Chromatin/Platelet binding ratio", "setting": "[1]", "result": 0.99},
      {"measurement": "Platelet binding (% of max)", "setting": "blood platelets", "result": "12.42 ± 1.72 % of max"}
    ]},
    {"compound": "O=C(O)c1cn(C2CC2)c2cc(N3CCNCC3)c(F)cc2c1=O", "note": "[Ciprofloxacin, reference compound]", "values": [
      {"measurement": "Chomatin binding (% of max)", "setting": "[1]", "result": "23.63 ± 9.59 % of max"},
      {"measurement": "Platelet binding (% of max)", "setting": "blood platelets", "result": "27.57 ± 3.22 % of max"}
    ]},
    {"compound": "CCCCCOCCCCCN=[N+]=[N-]", "note": "[Pipe-2]", "values": [
      {"measurement": "Chomatin binding (% of max)", "setting": "[1]", "result": "57.5 7.05 % of max"},
      {"measurement": "Chromatin/Platelet binding ratio", "setting": "[1]", "result": 3.59},
      {"measurement": "Platelet binding (% of max)", "setting": "blood platelets", "result": "16 ± 5.78 % of max"}
    ]},
    {"compound": "[N-]=[N+]=NCCOCCOCCNC(=O)c1cc2cc(N(CCCl)CCCl)ccc2o1", "note": "[MBF, N-(2-(2-(2-azidoethoxy)ethoxy)ethyl)-5-(bis(2-chloroethyl)amino)benzofuran-2-carboxamide]", "values": [
      {"measurement": "Chromatin binding (example disk image, in words)", "setting": "[1]; [3]", "result": "high"},
      {"measurement": "Chomatin binding (% of max)", "setting": "[1]", "result": "66.07 ± 13.21 % of max"},
      {"measurement": "Chromatin/Platelet binding ratio", "setting": "[1]", "result": 2.85},
      {"measurement": "Platelet binding (example disk image, in words)", "setting": "blood platelets; [3]", "result": "low platelet binding"},
      {"measurement": "Platelet binding (% of max)", "setting": "blood platelets", "result": "23.18 ± 4.05 % of max"}
    ]}
  ]
}
